Assay results: US20240374744A1, “PROTEIN AND PHARMACEUTICAL COMPOSITION COMPRISING SAME FOR PREVENTION OR TREATMENT OF CANCER” (CELLEMEDY CO., LTD, priority 2021, published 2024)

Assays:
Format in all cases: cell-based
Normal lung cells IMR-90 = assay: CCK (cell counting kit) cytotoxicity assay, IMR-90; conditions: IMR-90 cell; anticancer drug alone vs protein nanoparticle conjugate, from IC50
Protocol: (§1) Normal lung cells WI-38 and IMR-90, and normal colon cells CCD-18co were grown in 96-well microplate with 1×10^4 cells/well for 36 hours, and the cytotoxicity when only anticancer drug was added and the cytotoxicity when protein nanoparticle-anticancer drug conjugate was added were compared.

[1] = test system: normal colon cells CCD-18co; assay: CCK (cell counting kit) cytotoxicity assay, CCD-18co; conditions: CCD-18co cell; anticancer drug alone vs protein nanoparticle conjugate, from IC50
Protocol: as §1

Normal lung cells WI-38 = assay: CCK (cell counting kit) cytotoxicity assay, WI-38; conditions: WI-38 cell; anticancer drug alone vs protein nanoparticle conjugate, from IC50
Protocol: as §1

## Nc1ccn([C@@H]2O[C@H](CO)[C@@H](O)C2(F)F)c(=O)n1 [GEM, gemcitabine]
Normal lung cells IMR-90
  drug toxicity reduction (DTR): 7244
[1]
  drug toxicity reduction (DTR): 8913
Normal lung cells WI-38
  drug toxicity reduction (DTR): 3162

## COc1cccc2c1C(=O)c1c(O)c3c(c(O)c1C2=O)C[C@@](O)(C(=O)CO)C[C@@H]3O[C@H]1C[C@H](N)[C@H](O)[C@H](C)O1 [DOX, doxorubicin]
Normal lung cells IMR-90
  drug toxicity reduction (DTR): 316
[1]
  drug toxicity reduction (DTR): 91
Normal lung cells WI-38
  drug toxicity reduction (DTR): 263
